Test results from ChEMBL document CHEMBL4402569.
The source made the active and inactive calls. The rule behind the calls is not given here.

What was measured:
[1] = tested on: H5N1 subtype; assay: Antiviral activity against pseudotyped Influenza A virus H5N1 (Goose/Qinghai/59/05) infected in human A549 cells assessed as inhibition of viral replication at 12.5 uM incubated for 48 hrs by luciferase reporter gene assay relative to control; format: functional; details: Goose/Qinghai/59/05, A549, 48 h
[2] = tested on: H5N1 subtype; assay: Antiviral activity against pseudotyped Influenza A virus H5N1 (Goose/Qinghai/59/05) infected in human A549 cells assessed as inhibition of viral replication at incubated for 48 hrs by luciferase reporter gene assay; format: functional, organism-based; details: Goose/Qinghai/59/05, A549, 48 h
[3] = tested on: Influenza A virus; assay: Antiviral activity against Influenza A virus (A/Puerto Rico/8/1934(H1N1)) infected in MDCK cells incubated for 1 hr and measured after 36 hrs by PR8-PB2 Gaussia luciferase reporter gene assay; format: functional, organism-based
[4] = tested on: Influenza A virus; assay: Antiviral activity against Influenza A virus (A/Puerto Rico/8/1934(H1N1)) infected in human A549 cells assessed as decrease in viral titer at 1 uM by standard plaque assay; format: functional, organism-based
[5] = tested on: H5N1 subtype; assay: Antiviral activity against Influenza A virus (A/Viet Nam/1203/2004(H5N1)) infected in human A549 cells assessed as decrease in viral titer at 1 uM by standard plaque assay; format: functional, organism-based
[6] = tested on: H5N1 subtype; assay: Antiviral activity against Influenza A virus (A/Viet Nam/1203/2004(H5N1)) infected in human A549 cells assessed as decrease in viral titer at 20 uM by standard plaque assay; format: functional
[7] = tested on: Influenza A virus; assay: Antiviral activity against Influenza A virus (A/Puerto Rico/8/1934(H1N1)) infected in MDCK cells incubated for 1 hr and measured after 36 hrs by PR8-NS1 Gaussia luciferase reporter gene assay; format: functional, organism-based
[8] = tested on: Influenza A virus; assay: Antiviral activity against Influenza A virus (A/Puerto Rico/8/1934(H1N1)) infected in MDCK cells assessed as combination index at 35 nM incubated for 1 hr and measured after 36 hrs in presence of 156 nM Oseltamivir carboxylate by PR8-NS1 Gaussia luciferase reporter gene assay; format: functional
[9] = tested on: Influenza A virus; assay: Antiviral activity against Influenza A virus (A/Puerto Rico/8/1934(H1N1)) infected in MDCK cells assessed as combination index at 42 nM incubated for 1 hr and measured after 36 hrs in presence of 156 nM Oseltamivir carboxylate by PR8-NS1 Gaussia luciferase reporter gene assay; format: functional
[10] = tested on: Influenza A virus; assay: Antiviral activity against Influenza A virus (A/Puerto Rico/8/1934(H1N1)) infected in MDCK cells assessed as combination index at 49 nM incubated for 1 hr and measured after 36 hrs in presence of 156 nM Oseltamivir carboxylate by PR8-NS1 Gaussia luciferase reporter gene assay; format: functional
[11] = tested on: Influenza A virus; assay: Antiviral activity against Influenza A virus (A/Puerto Rico/8/1934(H1N1)) infected in MDCK cells assessed as combination index at 57 nM incubated for 1 hr and measured after 36 hrs in presence of 156 nM Oseltamivir carboxylate by PR8-NS1 Gaussia luciferase reporter gene assay; format: functional
[12] = tested on: Influenza A virus; assay: Antiviral activity against Influenza A virus (A/Puerto Rico/8/1934(H1N1)) infected in MDCK cells assessed as combination index at 68 nM incubated for 1 hr and measured after 36 hrs in presence of 156 nM Oseltamivir carboxylate by PR8-NS1 Gaussia luciferase reporter gene assay; format: functional
[13] = tested on: Influenza A virus; assay: Antiviral activity against Influenza A virus (A/Puerto Rico/8/1934(H1N1)) infected in MDCK cells assessed as combination index at 83 nM incubated for 1 hr and measured after 36 hrs in presence of 156 nM Oseltamivir carboxylate by PR8-NS1 Gaussia luciferase reporter gene assay; format: functional
[14] = tested on: Influenza A virus; assay: Antiviral activity against Influenza A virus (A/Puerto Rico/8/1934(H1N1)) infected in MDCK cells assessed as combination index at 114 nM incubated for 1 hr and measured after 36 hrs in presence of 156 nM Oseltamivir carboxylate by PR8-NS1 Gaussia luciferase reporter gene assay; format: functional

| Structure (SMILES) | inhibition at 12.5 µM [1] | EC50 [2] | EC50 [3] | other results |
| --- | --- | --- | --- | --- |
| CC(C)N1CC[C@H](NC(=O)c2ccc(C(F)(F)F)cc2Cl)[C@H](F)C1 | 99% | 670 nM | 195 nM | inhibition [4]: Active; inhibition [5]: Active; inhibition at 20 µM [6]: 100% |
| CC(C)N1CCC(NC(=O)c2ccc(C(F)(F)F)cc2Cl)CC1 | 99% | 360 nM | 380 nM | inhibition [4]: Active; inhibition [5]: Active; inhibition at 20 µM [6]: 100% |
| CC(C)N1CCC(NC(=O)c2ncc(Cl)cc2Cl)CC1 | 39% | – | – | – |
| CC(C)(C)N1CCC(NC(=O)c2c(Cl)cccc2Cl)CC1 | 99% | 510 nM | 113 nM | inhibition [4]: Active; inhibition [5]: Active; inhibition at 20 µM [6]: 100% |
| CC(C)N1CCC(C)(NC(=O)c2c(Cl)cccc2Cl)CC1 | 75% | – | – | – |
| O=C(NC1CCN(C2CCC2)CC1)c1c(Cl)cccc1Cl | 76% | – | – | – |
| CCC(CC)O[C@@H]1C=C(C(=O)O)C[C@H](N)[C@H]1NC(C)=O [OSELTAMIVIR CARBOXYLATE] | – | – | – | inhibition [6]: inactive; EC30 [7]: 160 nM; EC40 [7]: 229 nM; EC50 [7]: 318 nM; EC60 [7]: 441 nM; EC70 [7]: 629 nM; EC80 [7]: 972 nM; EC90 [7]: 1870 nM; CI [8]: 1.23; CI [9]: 0.94; CI [10]: 0.75; CI [11]: 0.61; CI [12]: 0.51; CI [13]: 0.42; CI [14]: 0.34 |
| CC(C)N1CCC(N(Cc2ccccc2)C(=O)c2c(Cl)cccc2Cl)CC1 | 64% | – | – | – |
| CC(C)N1CC[C@@H](NC(=O)c2ccc(C(F)(F)F)cc2Cl)[C@@H](F)C1 | 87% | 2930 nM | 989 nM | – |
| CC(C)N1CCC(NC(=O)c2c(Cl)cccc2Cl)C1 (stereo unspecified) | 11% | – | – | – |
| CC(C)N1CCCC(NC(=O)c2c(Cl)cccc2Cl)C1 (stereo unspecified) | 14% | – | – | – |
| CC(C)N1CCC2(CC1)OCCN2C(=O)c1c(Cl)cccc1Cl | 19% | – | – | – |
| CO[C@H]1CN(C(C)C)CC[C@H]1NC(=O)c1c(Cl)cccc1Cl | 64% | – | – | – |
| O=C(NC1CCN(C2COC2)CC1)c1c(Cl)cccc1Cl | 7% | – | – | – |
| CC(C)N1CC2C(C1)C2NC(=O)c1c(Cl)cccc1Cl (stereo unspecified) | 61% | – | – | – |
| CC(C)N1CCN(C(=O)c2c(Cl)cccc2Cl)CC1 | 4% | – | – | – |
| CC(C)N1CCC(CNC(=O)c2c(Cl)cccc2Cl)CC1 | 23% | – | – | – |

| Structure (SMILES) | inhibition at 12.5 µM [1] | EC50 [2] | EC50 [3] | other results |
| --- | --- | --- | --- | --- |
| CC(C)N1CCC(NS(=O)(=O)c2ccc(Cl)cc2Cl)CC1 | 1% | – | – | – |
| CC(C)N1CCC(NC(=O)c2c(Cl)cccc2C(F)(F)F)CC1 | 85% | 5620 nM | 587 nM | – |
| CC(C)N1CCC(N(C)C(=O)c2c(Cl)cccc2Cl)CC1 | 91% | 4450 nM | 724 nM | – |
| CC(C)CN1CCC(NC(=O)c2ccc(C(F)(F)F)cc2Cl)CC1 | 73% | – | – | – |
| CC(C)N1CCCC(NC(=O)c2c(Cl)cccc2Cl)CC1 (stereo unspecified) | 71% | – | – | – |
| CC(C)N1CC[C@@H](NC(=O)c2ccc(C(F)(F)F)cc2Cl)[C@H](F)C1 | 99% | 630 nM | 263 nM | – |
| CC(C)N1CC[C@H](NC(=O)c2ccc(C(F)(F)F)cc2Cl)[C@@H](F)C1 | 93% | 1160 nM | 324 nM | – |
| CC(C)N1CCC(NC(=O)c2ncc(C(F)(F)F)cc2Cl)CC1 | 76% | – | – | – |
| CC(C)N1CCC(NC(=O)c2ccc([N+](=O)[O-])cc2Cl)CC1 | 97% | 720 nM | 211 nM | – |
| O=C(NC1CCN(C2CCCCC2)CC1)c1ccc(C(F)(F)F)cc1Cl | 98% | 910 nM | 505 nM | – |
| CC(C)N1CCC(NC(=O)c2ncccc2Cl)CC1 | 40% | – | – | – |
| CC(C)N1CCC(NC(=O)c2ccccc2C(F)(F)F)CC1 | 31% | – | – | – |
| O=C(NC1CCN(C2CC2)CC1)c1c(Cl)cccc1Cl | 33% | – | – | – |
| CC(C)CN1CCC(NC(=O)c2c(Cl)cccc2Cl)CC1 | 89% | 2150 nM | 852 nM | – |
| CC(C)N1CCC(NC(=O)c2c(Cl)cccc2Cl)CC1 | 90% | 3040 nM | 272 nM | inhibition [4]: Active; inhibition [5]: Active; inhibition at 20 µM [6]: 100% |
| CC(C)N1CCC(NC(=O)c2c(Cl)cccc2Cl)C(F)(F)C1 (racemic) | 77% | – | – | – |
| CC(C)N1CC[C@H](NC(=O)c2c(Cl)cccc2Cl)[C@@H](F)C1 | 87% | 1810 nM | 885 nM | – |
